# From ChEMBL document CHEMBL1135031, “Sequestration of bacterial lipopolysaccharide by bis(Args) gemini compounds” (Bioorg Med Chem Lett, 2002)
# Key:
# Mus musculus [1] = assay: Tested for protective effect in D-galactosamine (800 mg/kg) sensitized mice injected with lipopolysaccharides at 40 ng/mouse and compound dose of 10 ug/mouse (ip); 9/10 (dead/ Total mice); assay type: functional
# [2] = Dose that resulted in 100% lethality in murine model of CF-1 mice; assay type: ADME; conditions: mouse, in vivo
# Mus musculus [3] = assay: Tested for protective effect in D-galactosamine (800 mg/kg) sensitized mice injected with lipopolysaccharides at 0 ng/mouse and compound dose of 40 ug/mouse (ip); 0/5 (dead/ Total mice); assay type: functional
# Mus musculus [4] = assay: Tested for protective effect in D-galactosamine (800 mg/kg) sensitized mice injected with lipopolysaccharides at 20 ng/mouse and compound dose of 0 ug/mouse (ip); 5/5 (dead/ Total mice); assay type: functional
# Mus musculus [5] = assay: Tested for protective effect in D-galactosamine (800 mg/kg) sensitized mice injected with lipopolysaccharides at 0 ng/mouse and compound dose of 10 ug/mouse (ip); 0/5 (dead/ Total mice); assay type: functional
# Mus musculus [6] = assay: Tested for protective effect in D-galactosamine (800 mg/kg) sensitized mice injected with lipopolysaccharides at 40 ng/mouse and compound dose of 0 ug/mouse (ip); 5/5 (dead/ Total mice); assay type: functional
# J774.A1 = assay: Inhibition of TNF-a production by J774.A1 cells stimulated for 18 hr with Escherichia coli O111:B4 LPS (25 ng/mL); assay type: functional; conditions: Mus musculus, J774.A1, 18 h; read-out: ED50 (the source's name)
# Mus musculus [7] = assay: Tested for protective effect in D-galactosamine (800 mg/kg) sensitized mice injected with lipopolysaccharides at 40 ng/mouse and compound dose of 40 ug/mouse (ip); 6/10 (dead/ Total mice); assay type: functional
# Mus musculus [8] = assay: Tested for protective effect in D-galactosamine (800 mg/kg) sensitized mice injected with lipopolysaccharides at 20 ng/mouse and compound dose of 40 ug/mouse (ip); 0/10 (dead/ Total mice); assay type: functional
# Mus musculus [9] = assay: Tested for protective effect in D-galactosamine (800 mg/kg) sensitized mice injected with lipopolysaccharides at 20 ng/mouse and compound dose of 10 ug/mouse (ip); 7/10 (dead/ Total mice); assay type: functional
SMILES,Lethality (Mus musculus [1]),Lethal dose [2],Lethality (Mus musculus [3]),Lethality (Mus musculus [4]),Lethality (Mus musculus [5]),Lethality (Mus musculus [6]),EC50 (J774.A1),Lethality (Mus musculus [7]),Lethality (Mus musculus [8]),Lethality (Mus musculus [9])
CCCCCCCCCCCC(=O)N[C@@H](CCCN=C(N)N)C(=O)NCCCCCCCCCNC(=O)[C@H](CCCN=C(N)N)NC(=O)CCCCCCCCCCC,9,10 ng/mL,0,5,0,5,2.5 µg/mL,6,0,7
CCCCCCCCCCCC(=O)N[C@@H](CCCN=C(N)N)C(=O)NCCCCCCNC(=O)[C@H](CCCN=C(N)N)NC(=O)CCCCCCCCCCC,–,–,–,–,–,–,1.4 µg/mL,–,–,–
